Results taken from article PMC6689975, “Novel Cell Wall Antifungals Reveal a Special Synergistic Activity in pbr1 Mutants Resistant to the Glucan Synthesis Antifungals Papulacandins and Echinocandins” (Frontiers in Microbiology, 2019).
In brackets after ≈: the same amount, converted by molar mass.

What was measured:
Test in all cases: microbe, parasite or virus in culture
[1] = tested on: Candida albicans C. a.^g (Table 6); design: species or system yeast; micro tube dilution MIC in YES (± 1.2 M sorbitol), complete growth inhibition by turbidity; conditions: 48 h, read-out: MIC
How it was run: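 YEPD/YES ± 1.2 M sorbitol; 2 X 10^6 cells/ml early log phase; cpd 0–200 μg/ml, 2% DMSO; 30°C, roller; turbidity 24 h + 48 h; MIC = no visible growth; n ≥ 3.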

[2] = tested on: Candida albicans C. a.^f (Table 4); design: species or system yeast; tube dilution MIC in YEPD (± 1.2 M sorbitol), complete growth inhibition by turbidity; conditions: 48 h, YEPD + 1.2 M sorbitol
Experimental: (§1) Standard YEPD (Yeast Extract, Peptone, Dextrose) ([Sherman, 1990]), YEPD+S (YEPD with 1.2M sorbitol), YES (Yeast Extract, Dextrose and Supplements of Adenine, Histidine, Leucine, Uracil and Lysine) ([Alfa et al., 1993]) and YES+S (YES with 1.2 M sorbitol) ([Ribas et al., 1991]; [Ishiguro et al., 1997]), media were used for determination of MIC values of the tested compounds. A stock solution of 10 mg/ml of each tested compounds was prepared in DMSO and serial dilutions in DMSO were prepared. The final concentration of DMSO was 2% in the YEPD medium. […] The serial dilutions of compounds were dispensed into test tubes with 1 ml of YEPD or YEPD+S to make final concentrations of 200, 100, 50, 25, 12.5, 6.26, 3.125, 1.6, 0.8 and 0.4 μg/ml. The tested yeast strains were previously grown in YEPD, YEPD+S, YES or YES+S agar plates at 30°C for 48 h. For inoculation of YEPD or YEPD+S macro test tubes a suspension of tested fungus was produced with 10^5 cfu/ml (cfu - colony forming unit). 10 μl of suspension was used for inoculation of each tube. After 48 h incubation at 30°C the tubes were checked. The MIC value is the lowest concentration of the tested compound that could inhibit the fungal growth and the medium remained clear. From each tube 10 μl culture was plated on YEPD agar medium to check the contamination. The MIC tests were carried out in three parallels. Micro-culture assays of large numbers of samples were analyzed as described) ([Martins et al., 2011]). Essentially early log-phase cells were grown in YEPD, YEPD+S, YES or YES+S (1.2 M sorbitol) medium at 30°C, and diluted to cell density of 4 X 10^6 cells/ml in YEPD, YEPD+S, YES or YES+S medium and aliquots of 100 μl were dispensed into each small test tube (3 ml test tube size). Then, another 100 μl of YEPD, YEPD+S, YES or YES+S with the corresponding dilution of each compound at 2X concentration (4% DMSO) was added. The final volume was 200 μl, with the cells diluted to of 2 X 10^6 cells/ml and each compound diluted to 1X final concentration, containing increasing concentrations of antifungal (0, 1, 2, 5, 10, 20, 50, 100 and 200 μg/ml) or an equivalent volume of solvent (2% DMSO). The cells were grown at 30°C in an orbital roller and turbidity was analyzed after 24 and 48 h of incubation. The MIC was determined as the minimal concentration of tested compound that produced complete cell growth inhibition and kept the medium clear. The MIC values were calculated from at least three independent experiments.

[3] = tested on: Candida albicans C. a.^g (Table 4); design: species or system yeast; tube dilution MIC in YEPD (± 1.2 M sorbitol), complete growth inhibition by turbidity; conditions: 48 h, YEPD + 1.2 M sorbitol
Experimental: as §1

[4] = tested on: Candida albicans C. a.^h (Table 4); design: species or system yeast; tube dilution MIC in YEPD (± 1.2 M sorbitol), complete growth inhibition by turbidity; conditions: 48 h, YEPD + 1.2 M sorbitol
Experimental: as §1

[5] = tested on: T1, Saccharomyces cerevisiae S. c.^d (wild-type CVX12-3A); design: species or system yeast; tube dilution MIC in YEPD (± 1.2 M sorbitol), complete growth inhibition by turbidity; conditions: 48 h, YEPD + 1.2 M sorbitol
T1 construct: CVX12-3A
Experimental: as §1

[6] = tested on: T2, Schizosaccharomyces pombe S. p.^a (wild-type 972 h-); design: species or system yeast; tube dilution MIC in YEPD (± 1.2 M sorbitol), complete growth inhibition by turbidity; conditions: 48 h, YEPD + 1.2 M sorbitol
T2 construct: 972 h-
Experimental: as §1

CC[C@H](C)C[C@H](C)CCCCCCCCC(=O)N[C@H]1C[C@@H](O)[C@@H](NCCN)NC(=O)[C@@H]2[C@@H](O)CCN2C(=O)[C@H]([C@H](O)CCN)NC(=O)[C@H]([C@H](O)[C@@H](O)c2ccc(O)cc2)NC(=O)[C@@H]2C[C@@H](O)CN2C(=O)[C@H]([C@@H](C)O)NC1=O [caspofungin]
MIC [1]: 50 µg/mL (≈ 45.7 µM)

O=c1oc2ccc3ccccc3c2cc1-c1ccccc1CO [compound 12]
MIC [2]: 100 µg/mL | MIC [3]: 200 µg/mL | MIC [4]: 100 µg/mL | MIC [5]: 50 µg/mL | MIC [6]: 50 µg/mL

O=c1oc2ccccc2cc1-c1ccccc1CO [compound 15]
MIC [2]: 25 µg/mL | MIC [3]: > 200 µg/mL | MIC [4]: > 200 µg/mL | MIC [5]: 100 µg/mL | MIC [6]: 200 µg/mL
